Experimental data taken from the kinase profiling compilation of Christmann-Franck et al. (2016).

Experiments:
Experiment in all cases: KINOMEscan competition binding
Conditions in all cases: compound 10.0 µM
[1] = biological target: ABL1 (human) (UniProt P00519)
[2] = tested on: ABL1 (human), P00519 [E255K]
[3] = tested on: ABL1 (human), P00519 [F317L]
[4] = biological target: ACVR1B (human) (UniProt P36896)
[5] = biological target: ADCK3 (human) (UniProt Q8NI60)
[6] = biological target: AXL (human) (UniProt P30530)
[7] = biological target: CAMK1D (human) (UniProt Q8IU85)
[8] = biological target: CAMK4 (human) (UniProt Q16566)
[9] = biological target: CDK3 (human) (UniProt Q00526)
[10] = biological target: CDK5 (human) (UniProt Q00535)
[11] = biological target: CSK (human) (UniProt P41240)
[12] = biological target: CSNK1A1L (human) (UniProt Q8N752)
[13] = biological target: DDR1 (human) (UniProt Q08345)
[14] = biological target: EPHA1 (human) (UniProt P21709)
[15] = biological target: EPHA3 (human) (UniProt P29320)
[16] = biological target: EPHA8 (human) (UniProt P29322)
[17] = biological target: EPHB1 (human) (UniProt P54762)
Sequence of EPHB1 (human) (P54762 whole entry, looked up): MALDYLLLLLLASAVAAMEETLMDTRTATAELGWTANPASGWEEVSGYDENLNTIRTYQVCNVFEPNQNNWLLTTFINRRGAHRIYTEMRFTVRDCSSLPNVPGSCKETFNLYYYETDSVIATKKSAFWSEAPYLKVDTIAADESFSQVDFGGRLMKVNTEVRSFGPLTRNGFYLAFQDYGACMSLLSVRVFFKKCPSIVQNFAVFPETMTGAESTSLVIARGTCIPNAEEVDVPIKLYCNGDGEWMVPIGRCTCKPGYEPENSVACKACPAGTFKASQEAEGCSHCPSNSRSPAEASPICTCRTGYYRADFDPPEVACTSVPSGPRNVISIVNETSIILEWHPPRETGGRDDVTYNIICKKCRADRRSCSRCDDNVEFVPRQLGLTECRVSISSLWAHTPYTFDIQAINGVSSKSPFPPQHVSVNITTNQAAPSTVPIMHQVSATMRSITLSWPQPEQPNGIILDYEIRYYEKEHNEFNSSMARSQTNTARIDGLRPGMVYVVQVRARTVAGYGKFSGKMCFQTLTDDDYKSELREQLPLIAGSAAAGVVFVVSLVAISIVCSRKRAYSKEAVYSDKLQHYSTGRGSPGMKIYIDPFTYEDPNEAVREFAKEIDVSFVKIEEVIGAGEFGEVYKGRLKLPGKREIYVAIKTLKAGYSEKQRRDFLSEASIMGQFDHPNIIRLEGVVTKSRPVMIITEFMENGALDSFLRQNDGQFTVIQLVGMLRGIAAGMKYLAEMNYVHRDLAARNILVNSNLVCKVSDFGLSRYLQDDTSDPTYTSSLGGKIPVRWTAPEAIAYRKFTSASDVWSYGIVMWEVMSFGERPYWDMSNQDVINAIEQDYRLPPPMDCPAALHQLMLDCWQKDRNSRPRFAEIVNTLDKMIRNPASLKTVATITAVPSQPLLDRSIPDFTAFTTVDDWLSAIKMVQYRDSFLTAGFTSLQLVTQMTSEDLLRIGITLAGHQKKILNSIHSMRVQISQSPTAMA

[18] = biological target: FGFR1 (human) (UniProt P11362)
[19] = biological target: FGFR3 (human) (UniProt P22607)
[20] = biological target: GSK3B (human) (UniProt P49841)
[21] = biological target: IKBKB (human) (UniProt O14920)
[22] = biological target: IKBKE (human) (UniProt Q14164)
[23] = biological target: LCK (human) (UniProt P06239)
[24] = biological target: MAP3K3 (human) (UniProt Q99759)
[25] = biological target: MAP3K9 (human) (UniProt P80192)
[26] = biological target: MAP4K3 (human) (UniProt Q8IVH8)
[27] = biological target: MAPK11 (human) (UniProt Q15759)
[28] = biological target: MAPKAPK5 (human) (UniProt Q8IW41)
Sequence of MAPKAPK5 (human) (Q8IW41 whole entry, looked up): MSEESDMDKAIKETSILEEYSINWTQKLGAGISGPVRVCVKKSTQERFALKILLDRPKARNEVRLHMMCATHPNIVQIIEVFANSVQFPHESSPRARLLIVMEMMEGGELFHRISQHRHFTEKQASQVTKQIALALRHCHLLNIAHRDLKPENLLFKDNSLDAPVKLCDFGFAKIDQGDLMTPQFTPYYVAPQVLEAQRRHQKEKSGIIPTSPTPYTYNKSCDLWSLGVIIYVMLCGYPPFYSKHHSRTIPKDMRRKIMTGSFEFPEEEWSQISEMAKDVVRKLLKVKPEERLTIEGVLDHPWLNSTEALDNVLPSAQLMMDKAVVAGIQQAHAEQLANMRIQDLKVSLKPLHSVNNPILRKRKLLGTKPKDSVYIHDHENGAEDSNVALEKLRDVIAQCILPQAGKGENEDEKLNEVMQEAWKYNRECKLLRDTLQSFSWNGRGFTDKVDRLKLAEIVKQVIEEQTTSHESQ

[29] = biological target: MYO3B (human) (UniProt Q8WXR4)
[30] = biological target: NEK6 (human) (UniProt Q9HC98)
Sequence of NEK6 (human) (Q9HC98 whole entry, looked up): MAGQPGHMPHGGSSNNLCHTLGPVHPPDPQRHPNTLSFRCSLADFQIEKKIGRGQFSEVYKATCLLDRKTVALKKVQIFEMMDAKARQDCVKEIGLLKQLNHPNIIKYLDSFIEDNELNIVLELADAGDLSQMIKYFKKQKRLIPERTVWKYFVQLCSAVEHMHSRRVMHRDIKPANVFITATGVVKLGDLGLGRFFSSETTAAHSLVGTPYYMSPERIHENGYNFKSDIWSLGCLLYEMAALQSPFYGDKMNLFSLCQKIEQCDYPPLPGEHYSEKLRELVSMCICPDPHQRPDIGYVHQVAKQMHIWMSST

[31] = biological target: NTRK1 (human) (UniProt P04629)
[32] = biological target: PDPK1 (human) (UniProt O15530)
[33] = biological target: PIK3C2B (human) (UniProt O00750)
[34] = biological target: PIK3CB (human) (UniProt P42338)
[35] = biological target: PLK3 (human) (UniProt Q9H4B4)
Sequence of PLK3 (human) (Q9H4B4 whole entry, looked up): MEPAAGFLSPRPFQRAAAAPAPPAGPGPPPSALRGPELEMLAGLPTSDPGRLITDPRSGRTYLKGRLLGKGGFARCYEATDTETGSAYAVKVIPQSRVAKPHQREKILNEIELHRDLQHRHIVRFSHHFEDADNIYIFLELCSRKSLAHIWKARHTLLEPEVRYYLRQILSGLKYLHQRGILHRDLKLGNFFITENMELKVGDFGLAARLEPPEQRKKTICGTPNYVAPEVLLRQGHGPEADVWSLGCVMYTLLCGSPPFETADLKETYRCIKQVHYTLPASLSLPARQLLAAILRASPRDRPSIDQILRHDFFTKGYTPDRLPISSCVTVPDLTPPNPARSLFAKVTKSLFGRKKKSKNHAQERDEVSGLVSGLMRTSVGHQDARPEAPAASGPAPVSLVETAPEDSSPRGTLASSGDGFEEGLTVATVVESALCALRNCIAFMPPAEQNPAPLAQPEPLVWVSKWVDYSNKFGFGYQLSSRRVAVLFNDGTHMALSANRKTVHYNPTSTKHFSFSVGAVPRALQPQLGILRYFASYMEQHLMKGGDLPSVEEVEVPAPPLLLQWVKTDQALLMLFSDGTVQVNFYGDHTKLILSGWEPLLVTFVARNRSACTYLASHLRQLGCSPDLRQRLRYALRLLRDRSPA

[36] = biological target: PRKCD (human) (UniProt Q05655)
Sequence of PRKCD (human) (Q05655 whole entry, looked up): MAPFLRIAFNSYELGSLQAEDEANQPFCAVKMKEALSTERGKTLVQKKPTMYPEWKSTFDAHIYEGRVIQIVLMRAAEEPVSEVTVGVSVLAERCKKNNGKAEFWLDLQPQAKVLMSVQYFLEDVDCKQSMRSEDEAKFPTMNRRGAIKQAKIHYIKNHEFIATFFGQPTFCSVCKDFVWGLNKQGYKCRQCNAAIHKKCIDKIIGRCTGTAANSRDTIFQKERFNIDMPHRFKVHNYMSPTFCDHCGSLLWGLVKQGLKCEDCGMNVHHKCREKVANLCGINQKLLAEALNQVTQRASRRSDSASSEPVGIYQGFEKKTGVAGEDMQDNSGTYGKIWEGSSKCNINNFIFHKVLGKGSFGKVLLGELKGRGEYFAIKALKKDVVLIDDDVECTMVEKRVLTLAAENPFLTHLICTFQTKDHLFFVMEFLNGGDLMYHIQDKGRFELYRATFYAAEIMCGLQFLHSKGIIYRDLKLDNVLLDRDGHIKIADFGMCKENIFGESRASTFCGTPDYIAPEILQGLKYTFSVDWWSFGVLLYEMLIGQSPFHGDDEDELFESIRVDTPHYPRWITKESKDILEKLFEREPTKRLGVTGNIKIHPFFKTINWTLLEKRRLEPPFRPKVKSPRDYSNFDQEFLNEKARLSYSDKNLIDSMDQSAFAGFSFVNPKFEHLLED

[37] = biological target: RPS6KA2 KD1 (human) (UniProt Q15349)
Sequence of RPS6KA2 KD1 (human) (Q15349 whole entry, looked up): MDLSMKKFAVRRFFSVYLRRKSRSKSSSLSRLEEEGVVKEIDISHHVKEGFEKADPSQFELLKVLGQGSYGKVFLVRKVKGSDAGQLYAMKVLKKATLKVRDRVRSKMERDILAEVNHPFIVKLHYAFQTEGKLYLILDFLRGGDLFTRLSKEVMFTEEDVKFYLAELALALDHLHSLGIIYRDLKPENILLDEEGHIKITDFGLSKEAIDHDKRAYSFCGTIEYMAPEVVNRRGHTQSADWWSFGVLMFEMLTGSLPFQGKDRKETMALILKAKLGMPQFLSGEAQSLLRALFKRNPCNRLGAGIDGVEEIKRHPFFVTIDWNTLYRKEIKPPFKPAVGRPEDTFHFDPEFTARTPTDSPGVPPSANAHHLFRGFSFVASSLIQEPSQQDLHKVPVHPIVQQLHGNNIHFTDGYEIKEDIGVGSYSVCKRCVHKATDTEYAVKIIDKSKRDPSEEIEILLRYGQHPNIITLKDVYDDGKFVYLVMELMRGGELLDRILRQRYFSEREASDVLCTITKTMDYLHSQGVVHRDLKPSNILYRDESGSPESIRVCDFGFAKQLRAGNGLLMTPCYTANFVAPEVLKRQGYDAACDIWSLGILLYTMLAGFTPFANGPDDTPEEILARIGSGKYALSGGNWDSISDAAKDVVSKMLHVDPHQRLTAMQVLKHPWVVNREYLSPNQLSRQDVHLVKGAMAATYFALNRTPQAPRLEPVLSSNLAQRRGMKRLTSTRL

[38] = biological target: STK36 (human) (UniProt Q9NRP7)
[39] = biological target: STK4 (human) (UniProt Q13043)
[40] = biological target: TLK2 (human) (UniProt Q86UE8)
[41] = biological target: TXK (human) (UniProt P42681)
[42] = biological target: WEE1 (human) (UniProt P30291)

Sequence of ABL1 (human), P00519 [E255K] (P00519 whole entry E255K, looked up): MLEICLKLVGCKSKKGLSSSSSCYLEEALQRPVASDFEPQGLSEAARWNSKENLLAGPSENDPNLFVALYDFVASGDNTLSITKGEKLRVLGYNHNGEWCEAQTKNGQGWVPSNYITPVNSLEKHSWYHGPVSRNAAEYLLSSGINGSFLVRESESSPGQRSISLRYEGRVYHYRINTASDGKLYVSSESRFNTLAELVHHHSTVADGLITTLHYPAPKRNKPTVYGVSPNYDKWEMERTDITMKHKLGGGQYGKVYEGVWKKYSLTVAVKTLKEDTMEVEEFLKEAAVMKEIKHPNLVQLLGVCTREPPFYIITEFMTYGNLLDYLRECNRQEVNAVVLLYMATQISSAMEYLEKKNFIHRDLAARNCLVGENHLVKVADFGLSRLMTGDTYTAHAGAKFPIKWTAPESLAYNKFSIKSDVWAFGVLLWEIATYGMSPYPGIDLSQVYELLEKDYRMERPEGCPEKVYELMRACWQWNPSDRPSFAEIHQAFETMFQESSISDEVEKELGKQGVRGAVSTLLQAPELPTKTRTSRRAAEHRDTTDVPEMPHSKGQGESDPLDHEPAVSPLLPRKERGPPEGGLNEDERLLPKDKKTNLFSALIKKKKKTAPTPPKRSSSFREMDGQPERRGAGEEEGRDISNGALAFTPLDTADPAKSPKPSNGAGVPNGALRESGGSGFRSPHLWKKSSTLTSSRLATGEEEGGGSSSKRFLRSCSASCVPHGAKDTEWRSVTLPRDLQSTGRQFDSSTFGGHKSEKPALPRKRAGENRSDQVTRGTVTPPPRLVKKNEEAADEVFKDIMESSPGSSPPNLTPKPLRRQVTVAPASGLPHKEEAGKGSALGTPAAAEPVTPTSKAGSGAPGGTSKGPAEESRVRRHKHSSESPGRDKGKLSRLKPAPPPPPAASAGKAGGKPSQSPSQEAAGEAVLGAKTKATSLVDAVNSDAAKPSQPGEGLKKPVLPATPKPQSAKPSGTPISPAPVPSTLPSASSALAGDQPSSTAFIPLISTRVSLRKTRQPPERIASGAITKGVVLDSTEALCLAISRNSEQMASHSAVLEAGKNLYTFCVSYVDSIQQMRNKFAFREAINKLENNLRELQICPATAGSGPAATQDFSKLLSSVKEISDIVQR
Sequence of ABL1 (human), P00519 [F317L] (P00519 whole entry F317L, looked up): as the sequence (P00519 whole entry E255K, looked up) above, with K255E, F317L counted along it
Sequence of ABL1 (human) (P00519 whole entry, looked up): as the sequence (P00519 whole entry E255K, looked up) above, with K255E counted along it

## CN1C(=O)c2ccccc2N(C)c2nc(NS(=O)(=O)c3ccc(N)cc3)ncc21
[1]
  kinase still bound, per cent of control: 99%
[2]
  kinase still bound, per cent of control: 100%
[3]
  kinase still bound, per cent of control: 100%
[4]
  kinase still bound, per cent of control: 100%
[5]
  kinase still bound, per cent of control: 99%
[6]
  kinase still bound, per cent of control: 100%
[7]
  kinase still bound, per cent of control: 100%
[8]
  kinase still bound, per cent of control: 100%
[9]
  kinase still bound, per cent of control: 100%
[10]
  kinase still bound, per cent of control: 100%
[11]
  kinase still bound, per cent of control: 100%
[12]
  kinase still bound, per cent of control: 100%
[13]
  kinase still bound, per cent of control: 100%
[14]
  kinase still bound, per cent of control: 100%
[15]
  kinase still bound, per cent of control: 97%
[16]
  kinase still bound, per cent of control: 100%
[17]
  kinase still bound, per cent of control: 100%
[18]
  kinase still bound, per cent of control: 100%
[19]
  kinase still bound, per cent of control: 100%
[20]
  kinase still bound, per cent of control: 94%
[21]
  kinase still bound, per cent of control: 100%
[22]
  kinase still bound, per cent of control: 100%
[23]
  kinase still bound, per cent of control: 100%
[24]
  kinase still bound, per cent of control: 100%
[25]
  kinase still bound, per cent of control: 100%
[26]
  kinase still bound, per cent of control: 100%
[27]
  kinase still bound, per cent of control: 100%
[28]
  kinase still bound, per cent of control: 100%
[29]
  kinase still bound, per cent of control: 74%
[30]
  kinase still bound, per cent of control: 100%
[31]
  kinase still bound, per cent of control: 77%
[32]
  kinase still bound, per cent of control: 100%
[33]
  kinase still bound, per cent of control: 97%
[34]
  kinase still bound, per cent of control: 100%
[35]
  kinase still bound, per cent of control: 100%
[36]
  kinase still bound, per cent of control: 100%
[37]
  kinase still bound, per cent of control: 100%
[38]
  kinase still bound, per cent of control: 100%
[39]
  kinase still bound, per cent of control: 71%
[40]
  kinase still bound, per cent of control: 100%
[41]
  kinase still bound, per cent of control: 96%
[42]
  kinase still bound, per cent of control: 99%

## O=C1NC(=O)/C(=C/c2c[nH]c(=O)c(-c3ccc(N4CCNCC4)nc3)c2)S1
[1]
  kinase still bound, per cent of control: 91%
[2]
  kinase still bound, per cent of control: 94%
[3]
  kinase still bound, per cent of control: 66%
[4]
  kinase still bound, per cent of control: 80%
[5]
  kinase still bound, per cent of control: 76%
[6]
  kinase still bound, per cent of control: 24%
[7]
  kinase still bound, per cent of control: 48%
[8]
  kinase still bound, per cent of control: 100%
[9]
  kinase still bound, per cent of control: 100%
[10]
  kinase still bound, per cent of control: 100%
[11]
  kinase still bound, per cent of control: 80%
[12]
  kinase still bound, per cent of control: 100%
[13]
  kinase still bound, per cent of control: 100%
[14]
  kinase still bound, per cent of control: 100%
[15]
  kinase still bound, per cent of control: 67%
[16]
  kinase still bound, per cent of control: 76%
[17]
  kinase still bound, per cent of control: 95%
[18]
  kinase still bound, per cent of control: 100%
[19]
  kinase still bound, per cent of control: 84%
[20]
  kinase still bound, per cent of control: 53%
[21]
  kinase still bound, per cent of control: 84%
[22]
  kinase still bound, per cent of control: 62%
[23]
  kinase still bound, per cent of control: 100%
[24]
  kinase still bound, per cent of control: 9.9%
[25]
  kinase still bound, per cent of control: 94%
[26]
  kinase still bound, per cent of control: 53%
[27]
  kinase still bound, per cent of control: 82%
[28]
  kinase still bound, per cent of control: 84%
[29]
  kinase still bound, per cent of control: 74%
[30]
  kinase still bound, per cent of control: 100%
[31]
  kinase still bound, per cent of control: 78%
[32]
  kinase still bound, per cent of control: 100%
[33]
  kinase still bound, per cent of control: 90%
[34]
  kinase still bound, per cent of control: 4.8%
[35]
  kinase still bound, per cent of control: 85%
[36]
  kinase still bound, per cent of control: 32%
[37]
  kinase still bound, per cent of control: 64%
[38]
  kinase still bound, per cent of control: 85%
[39]
  kinase still bound, per cent of control: 96%
[40]
  kinase still bound, per cent of control: 99%
[41]
  kinase still bound, per cent of control: 80%
[42]
  kinase still bound, per cent of control: 91%

## COc1cc(N2CCN(C)CC2)ccc1Nc1ncc2c(n1)Nc1ccccc1NC2=O
[1]
  kinase still bound, per cent of control: 24%
[2]
  kinase still bound, per cent of control: 19%
[3]
  kinase still bound, per cent of control: 29%
[4]
  kinase still bound, per cent of control: 100%
[5]
  kinase still bound, per cent of control: 100%
[6]
  kinase still bound, per cent of control: 83%
[7]
  kinase still bound, per cent of control: 100%
[8]
  kinase still bound, per cent of control: 100%
[9]
  kinase still bound, per cent of control: 85%
[10]
  kinase still bound, per cent of control: 87%
[11]
  kinase still bound, per cent of control: 100%
[12]
  kinase still bound, per cent of control: 100%
[13]
  kinase still bound, per cent of control: 81%
[14]
  kinase still bound, per cent of control: 74%
[15]
  kinase still bound, per cent of control: 61%
[16]
  kinase still bound, per cent of control: 80%
[17]
  kinase still bound, per cent of control: 96%
[18]
  kinase still bound, per cent of control: 80%
[19]
  kinase still bound, per cent of control: 97%
[20]
  kinase still bound, per cent of control: 53%
[21]
  kinase still bound, per cent of control: 100%
[22]
  kinase still bound, per cent of control: 97%
[23]
  kinase still bound, per cent of control: 28%
[24]
  kinase still bound, per cent of control: 86%
[25]
  kinase still bound, per cent of control: 82%
[26]
  kinase still bound, per cent of control: 100%
[27]
  kinase still bound, per cent of control: 100%
[28]
  kinase still bound, per cent of control: 100%
[29]
  kinase still bound, per cent of control: 100%
[30]
  kinase still bound, per cent of control: 99%
[31]
  kinase still bound, per cent of control: 1.6%
[32]
  kinase still bound, per cent of control: 82%
[33]
  kinase still bound, per cent of control: 100%
[34]
  kinase still bound, per cent of control: 88%
[35]
  kinase still bound, per cent of control: 83%
[36]
  kinase still bound, per cent of control: 100%
[37]
  kinase still bound, per cent of control: 61%
[38]
  kinase still bound, per cent of control: 64%
[39]
  kinase still bound, per cent of control: 100%
[40]
  kinase still bound, per cent of control: 100%
[41]
  kinase still bound, per cent of control: 80%
[42]
  kinase still bound, per cent of control: 86%
